The source of these data is ChEMBL document CHEMBL2203036, “Discovery of 1-[2-(2,4-dimethylphenylsulfanyl)phenyl]piperazine (Lu AA21004): a novel multimodal compound for the treatment of major depressive disorder” (J Med Chem, 2011).

Data set [1] has as its system Rattus norvegicus. Briefly: Target occupancy at SERT in Harlan rat at 5 mg/kg, sc administered QD for 3 days relative to vehicle-treated control. It counts as functional. The following applies: route subcutaneous.
Data set [2] concerns the target 5-hydroxytryptamine receptor 7 (Homo sapiens, UniProt P34969). Briefly: Binding affinity to human 5HT7 receptor.
Data set [3] addresses 5-hydroxytryptamine receptor 6 (Homo sapiens, UniProt P50406). Briefly: Binding affinity to human 5HT6 receptor.
Data set [4] concerns the target Beta-1 adrenergic receptor (Homo sapiens, UniProt P08588). In words: Binding affinity to human beta 1 adrenergic receptor.
The target of another data set is Histamine H2 receptor (Homo sapiens, UniProt P25021). Briefly: Binding affinity to human histamine H2 receptor.
Chain of Histamine H2 receptor (P25021 whole entry): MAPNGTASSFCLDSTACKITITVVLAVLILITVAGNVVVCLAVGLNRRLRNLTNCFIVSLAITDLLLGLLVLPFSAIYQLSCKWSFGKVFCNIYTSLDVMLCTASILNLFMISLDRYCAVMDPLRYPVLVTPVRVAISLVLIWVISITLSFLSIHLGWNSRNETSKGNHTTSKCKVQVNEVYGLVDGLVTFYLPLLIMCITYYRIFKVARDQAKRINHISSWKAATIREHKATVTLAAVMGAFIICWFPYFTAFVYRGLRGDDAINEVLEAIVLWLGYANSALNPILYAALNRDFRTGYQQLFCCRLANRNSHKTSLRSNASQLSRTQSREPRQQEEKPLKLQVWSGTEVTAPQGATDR
Data set [5] deals with 5-hydroxytryptamine receptor 3A (Rattus norvegicus, UniProt P35563). In words: Antagonist activity at rat 5HT3A receptor expressed in xenopus oocytes assessed as inhibition of 5HT-induced effect by electrophysiological method. It counts as functional, cell-based, Oocyte.
Chain of 5-hydroxytryptamine receptor 3A (Rattus norvegicus, UniProt P35563) (P35563 whole entry): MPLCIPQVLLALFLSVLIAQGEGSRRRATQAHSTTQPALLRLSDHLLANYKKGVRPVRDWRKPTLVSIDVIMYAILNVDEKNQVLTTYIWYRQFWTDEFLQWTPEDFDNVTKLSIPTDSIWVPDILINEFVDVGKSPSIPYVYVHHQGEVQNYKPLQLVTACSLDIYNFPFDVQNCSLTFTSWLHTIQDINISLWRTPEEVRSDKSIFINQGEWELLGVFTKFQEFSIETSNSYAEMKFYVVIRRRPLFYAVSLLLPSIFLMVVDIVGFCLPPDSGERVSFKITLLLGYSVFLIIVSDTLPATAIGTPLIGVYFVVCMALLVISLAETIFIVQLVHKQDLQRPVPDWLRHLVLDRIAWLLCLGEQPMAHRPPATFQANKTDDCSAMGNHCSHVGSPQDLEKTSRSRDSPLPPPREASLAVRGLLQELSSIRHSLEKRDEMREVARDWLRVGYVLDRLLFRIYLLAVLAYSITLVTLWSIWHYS
Data set [6] has as its system Rattus norvegicus. In words: Hepatic clearance in rat at 1 mg/kg, iv. It counts as ADME, organism-based, Liver. More on the design: dose 1 mg/kg, route intravenous. To be noted: in vivo.
In the next data set the target is Cytochrome P450 3A4 (Homo sapiens, UniProt P08684). Briefly: Inhibition of human recombinant CYP3A4 using resorufin benzyl ether after 30 mins by fluorescence spectrophotometric analysis. It counts as ADME.
Chain of Cytochrome P450 3A4 (P08684 whole entry): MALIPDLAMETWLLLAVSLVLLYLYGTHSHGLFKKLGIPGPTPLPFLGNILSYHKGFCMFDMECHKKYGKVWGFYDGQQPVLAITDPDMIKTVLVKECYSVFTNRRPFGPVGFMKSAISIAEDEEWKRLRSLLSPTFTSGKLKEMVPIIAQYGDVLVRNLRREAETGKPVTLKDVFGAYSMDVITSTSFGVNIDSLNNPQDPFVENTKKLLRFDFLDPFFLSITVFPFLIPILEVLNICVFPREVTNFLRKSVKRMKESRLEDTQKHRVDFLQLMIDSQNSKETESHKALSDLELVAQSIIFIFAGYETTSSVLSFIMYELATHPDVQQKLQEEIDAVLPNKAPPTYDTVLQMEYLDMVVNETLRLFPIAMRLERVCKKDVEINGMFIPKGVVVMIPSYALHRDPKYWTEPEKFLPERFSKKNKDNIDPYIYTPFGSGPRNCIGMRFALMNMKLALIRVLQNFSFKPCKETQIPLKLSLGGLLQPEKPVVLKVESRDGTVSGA
Another data set deals with Cytochrome P450 2D6 (Homo sapiens, UniProt P10635). In words: Inhibition of human recombinant CYP2D6 using 3-[2-(N,N-diethyl-N-methylamino)ethyl]-7-methoxy- 4-methylcoumarin after 45 mins by fluorescence spectrophotometric analysis. It counts as ADME.
Chain of Cytochrome P450 2D6 (P10635 whole entry): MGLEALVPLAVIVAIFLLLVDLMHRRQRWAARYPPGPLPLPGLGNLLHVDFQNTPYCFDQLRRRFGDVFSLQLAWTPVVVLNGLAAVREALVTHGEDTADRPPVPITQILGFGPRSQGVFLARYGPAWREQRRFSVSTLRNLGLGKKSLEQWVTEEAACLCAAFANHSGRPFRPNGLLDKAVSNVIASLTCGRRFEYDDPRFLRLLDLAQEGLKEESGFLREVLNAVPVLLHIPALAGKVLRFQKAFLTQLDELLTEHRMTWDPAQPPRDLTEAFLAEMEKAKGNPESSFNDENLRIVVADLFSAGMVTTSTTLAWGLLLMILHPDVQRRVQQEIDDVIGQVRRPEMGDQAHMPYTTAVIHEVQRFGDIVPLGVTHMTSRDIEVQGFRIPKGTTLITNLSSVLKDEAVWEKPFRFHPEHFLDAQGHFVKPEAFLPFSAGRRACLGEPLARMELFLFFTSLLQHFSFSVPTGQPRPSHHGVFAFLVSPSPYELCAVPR
A further data set concerns Liver microsomes. In words: Intrinsic clearance in rat liver microsomes at 1 uM after 60 mins by LC-MS/MS analysis. It counts as ADME, Microsome. The following applies: 1 h. (In general: Microsomes from liver hold many membrane-bound enzymes, among them those of drug oxidation.)
For data set [7], the target named is T1, 5-hydroxytryptamine receptor 3A (Homo sapiens, UniProt P46098).
T1 sequence (P46098 whole entry): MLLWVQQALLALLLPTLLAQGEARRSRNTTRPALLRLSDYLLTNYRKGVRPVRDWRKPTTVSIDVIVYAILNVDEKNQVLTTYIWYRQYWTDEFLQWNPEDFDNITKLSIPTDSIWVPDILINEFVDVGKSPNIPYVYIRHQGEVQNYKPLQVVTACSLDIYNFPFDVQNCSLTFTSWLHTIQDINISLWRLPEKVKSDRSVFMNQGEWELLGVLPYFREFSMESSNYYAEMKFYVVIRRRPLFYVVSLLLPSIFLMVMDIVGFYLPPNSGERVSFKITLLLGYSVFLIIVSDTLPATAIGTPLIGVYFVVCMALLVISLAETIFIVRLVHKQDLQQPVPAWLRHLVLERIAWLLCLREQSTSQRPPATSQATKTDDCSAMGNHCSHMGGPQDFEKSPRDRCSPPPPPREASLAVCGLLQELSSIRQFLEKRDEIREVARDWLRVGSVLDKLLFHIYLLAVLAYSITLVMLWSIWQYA
Briefly: Binding affinity to human 5HT3A receptor.

In data set [8] the target is Sodium-dependent noradrenaline transporter (Homo sapiens) (UniProt P23975). Briefly: Inhibition of human NET at 1 uM.
Chain of Sodium-dependent noradrenaline transporter (Homo sapiens) (P23975 whole entry): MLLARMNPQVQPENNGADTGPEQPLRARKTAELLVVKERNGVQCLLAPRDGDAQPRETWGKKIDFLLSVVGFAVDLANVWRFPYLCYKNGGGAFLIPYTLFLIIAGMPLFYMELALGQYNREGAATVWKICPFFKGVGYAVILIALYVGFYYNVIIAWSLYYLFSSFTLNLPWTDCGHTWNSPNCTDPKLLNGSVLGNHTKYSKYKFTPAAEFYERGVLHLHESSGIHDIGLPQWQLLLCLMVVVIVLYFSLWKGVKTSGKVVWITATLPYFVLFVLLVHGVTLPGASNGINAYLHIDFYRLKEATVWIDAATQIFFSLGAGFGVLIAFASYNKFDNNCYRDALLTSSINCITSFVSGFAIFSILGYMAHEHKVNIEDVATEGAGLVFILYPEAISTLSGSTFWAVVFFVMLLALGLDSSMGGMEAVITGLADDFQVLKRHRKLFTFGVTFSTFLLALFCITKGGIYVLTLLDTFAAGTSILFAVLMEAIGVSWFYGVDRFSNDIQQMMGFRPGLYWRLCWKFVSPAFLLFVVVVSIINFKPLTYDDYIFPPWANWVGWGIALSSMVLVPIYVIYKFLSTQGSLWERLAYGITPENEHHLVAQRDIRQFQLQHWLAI
Data set [9] deals with T2, 5-hydroxytryptamine receptor 3A (Homo sapiens) (UniProt P46098).
T2 sequence (whole entry): T1 sequence (P46098 whole entry)
In words: Inhibition of human 5HT3A receptor at 1 uM.

Data set [10] has as its target T2, 5-hydroxytryptamine receptor 3A (Homo sapiens). Briefly: Agonist activity at human 5HT3A receptor expressed in xenopus oocytes by electrophysiological method relative to 5HT. To be noted: Oocyte.
The subject of data set [11] is Rattus norvegicus. Briefly: Antidepression activity in Harlan rat assessed as increase in extracellular 5HT level in medial prefrontal cortex region at 5 to 10 mg/kg, sc administered QD for 3 days by microdialysis method.

Each structure is given as a SMILES string. Active and inactive are the calls of the source. No cut-off for these calls is given here.

Chain of 5-hydroxytryptamine receptor 6 (P50406 whole entry): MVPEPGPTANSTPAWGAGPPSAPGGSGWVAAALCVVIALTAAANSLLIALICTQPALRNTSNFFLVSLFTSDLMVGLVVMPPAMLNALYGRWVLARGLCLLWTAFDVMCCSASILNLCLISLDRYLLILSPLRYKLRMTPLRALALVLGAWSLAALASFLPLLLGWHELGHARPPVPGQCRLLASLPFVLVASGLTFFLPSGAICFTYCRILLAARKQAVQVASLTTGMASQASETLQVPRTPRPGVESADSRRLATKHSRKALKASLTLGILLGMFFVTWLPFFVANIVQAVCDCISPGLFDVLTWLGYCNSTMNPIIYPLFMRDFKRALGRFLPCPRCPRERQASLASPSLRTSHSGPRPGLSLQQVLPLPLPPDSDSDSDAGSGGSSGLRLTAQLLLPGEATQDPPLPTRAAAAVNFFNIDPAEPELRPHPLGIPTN
Chain of Beta-1 adrenergic receptor (P08588 whole entry): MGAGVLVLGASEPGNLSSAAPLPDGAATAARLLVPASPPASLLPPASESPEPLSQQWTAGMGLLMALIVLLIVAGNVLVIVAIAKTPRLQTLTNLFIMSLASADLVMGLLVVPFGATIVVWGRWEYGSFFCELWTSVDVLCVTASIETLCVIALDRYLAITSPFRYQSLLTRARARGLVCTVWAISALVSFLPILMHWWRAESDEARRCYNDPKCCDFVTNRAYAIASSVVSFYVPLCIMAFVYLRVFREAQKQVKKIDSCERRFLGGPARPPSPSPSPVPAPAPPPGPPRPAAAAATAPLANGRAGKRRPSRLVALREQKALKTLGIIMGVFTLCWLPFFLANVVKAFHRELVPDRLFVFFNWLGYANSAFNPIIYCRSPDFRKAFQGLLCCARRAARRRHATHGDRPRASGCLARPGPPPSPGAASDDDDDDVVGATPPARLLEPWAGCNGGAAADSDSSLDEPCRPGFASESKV
Chain of 5-hydroxytryptamine receptor 7 (P34969 whole entry): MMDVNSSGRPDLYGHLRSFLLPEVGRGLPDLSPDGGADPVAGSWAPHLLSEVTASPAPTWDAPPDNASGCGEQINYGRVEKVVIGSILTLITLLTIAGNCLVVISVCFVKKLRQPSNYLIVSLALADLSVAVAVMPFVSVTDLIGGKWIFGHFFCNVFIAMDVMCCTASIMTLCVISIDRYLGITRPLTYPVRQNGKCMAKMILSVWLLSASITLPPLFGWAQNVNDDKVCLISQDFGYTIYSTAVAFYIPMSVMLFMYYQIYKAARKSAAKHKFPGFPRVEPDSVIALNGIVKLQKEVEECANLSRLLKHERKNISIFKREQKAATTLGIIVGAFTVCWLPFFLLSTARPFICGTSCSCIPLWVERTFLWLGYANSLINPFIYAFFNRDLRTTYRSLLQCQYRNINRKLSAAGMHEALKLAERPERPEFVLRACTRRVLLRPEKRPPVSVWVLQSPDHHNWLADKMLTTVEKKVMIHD

Usually Ki stands for a measure of affinity in units of concentration, obtained from inhibition or displacement. A higher Ki goes with lower affinity. The IC50 is the midpoint of a concentration-inhibition curve. The inhibition is the drop in the measured response relative to a control, in per cent. Compound `Cc1ccc(Sc2ccccc2N2CCNCC2)c(C)c1.Cl` registered an Occ with Rattus norvegicus [1] of 43%. The Ki came to 0.019 µM in data set [2]; 0.33 µM in data set [3]; 0.046 µM in data set [4]; 0.18 µM at Histamine H2 receptor; 0.0037 µM in data set [7]. Besides, the IC50 in data set [5] is 0.00018 µM; at Cytochrome P450 3A4 it was 10 µM; on Cytochrome P450 2D6 it was 9.8 µM. Besides, the CLH in the data set with Rattus norvegicus [6] was 118 mL/min/kg; in the data set with Liver microsomes, 55 mL/min. Besides, the results for the inhibition in data set [8] and in data set [9] were 88% and 100%, respectively. The same compound returned an Efficacy in data set [10] of 64%. Besides, in the data set with Rattus norvegicus [11], the outcome was Active.
